The record followed here is the pKa sets of Baltruschat and Czodrowski (2020).

The term pKa denotes the pH at which an ionisable group is half protonated. A lower pKa goes with a group that gives up its proton readily.

Structures are written as SMILES.

The conditions of the first data set: acidic group.
`Ic1nnn[nH]1` registered a pKa of 2.85.

`O=C(O)C1(O)CCCCC1` came in with a pKa of 4.18.

In turn, `COc1ccc(CC(C(C)=O)C(C)=O)cc1` displayed a pKa of 10.6.

On to `C=C[C@]1(O)C[NH+]2CC[C@H]1C[C@H]2[C@H](O)c1cc(O)[nH+]c2ccccc12`, for which the pKa was determined as 2.76.

On to `[NH3+][C@@H](CCC(=O)O)C(=O)O`, for which the pKa was found to be 2.08.

The molecule `O/N=C/c1ccc2c(c1)OCO2` had a pKa of 10.8.

`CC(=O)[C@@H]1C[C@H](C(=O)O)C1(C)C` came in with a pKa of 4.63.

For `Oc1cc[nH+]c(O)c1`, the pKa is 1.37.

For the molecule `Oc1c(Cl)cc(Cl)c(Cl)c1C[NH+]1CCOCC1`, the pKa was found to be 4.84.

As for `Cc1cc2ccccc2c(C(=O)O)c1C`, the pKa is 3.33.

As for `O=C(O)[C@@H]1C[C@@H]1Br`, the pKa came out at 4.09.

As for `O=C(c1ccccc1)c1cc[nH]n1`, the pKa was 12.

Consider `O=C(O)C(=O)Cc1ccccc1`, for which the pKa was determined as 2.68.

In turn, `CCc1cc(C(=O)O)cs1` came in with a pKa of 4.19.

`CCSC(C)C(=O)O` (configuration not stated): the pKa stood at 3.8.

In the case of `Cc1cccc(C(=O)O)c1Br`, the pKa came to 2.9.

For `COc1ccc(S(=O)(=O)NCc2ccccc2)cc1`, the pKa turned out to be 11.5.

Molecule `Nc1ccc2cn[nH]c2c1` yielded a pKa of 14.3.

Molecule `O=C(/C=N/O)CCl` showed a pKa of 7.9.

`O=C(O)[C@@H]1CSC[NH2+]1` displayed a pKa of 1.58.

For the molecule `COc1cc(C)ccc1C(=O)O`, the pKa was determined as 4.38.

As for `Nc1ccc(S(=O)(=O)Nc2cncnc2)cc1`, the pKa came to 6.62.

As for `Cc1cc(Nc2ccc([O-])cc2)cc(C)c1O`, the pKa worked out at 10.9.

`COc1ccc2[nH]c3c(C)nccc3c2c1`: the pKa was found to be 14.6.

Turning to `Nc1nc2nc[nH]c2c([O-])[nH+]1`, the pKa came out at 9.39.

`Cc1cccc(O)c1O` showed a pKa of 9.28.

In turn, `CCCCOC(=O)c1ccc[n+](O)c1` showed a pKa of 0.03.

Molecule `N#Cc1nn[nH]c1C#N` returned a pKa of 1.47.

For the molecule `Cc1cc(O)n(-c2ccccc2)n1`, the pKa amounted to 11.3.

Molecule `COc1ccc(/C=N/O)cc1OC` registered a pKa of 10.8.

Molecule `Cc1ccc(O)cc1[S+](C)C` yielded a pKa of 8.01.

Take `C[n+]1ccccc1O`: the pKa was 0.32.

In turn, `CONC(=O)c1ccccc1` showed a pKa of 8.89.

`Cc1c(O)cccc1C(=O)O` gave a pKa of 3.83.

In turn, `Oc1nc2nc[nH]c2c[nH+]1` came in with a pKa of 1.69.

Molecule `O=S(=O)(Nc1cccc(C(F)(F)F)c1)C(F)(F)F` had a pKa of 3.5.

As for `O=C(O)CCCOC(=O)CCCBr`, the pKa was 4.6.

`O=C(O)C#COc1ccccc1` registered a pKa of 3.09.

`Nc1ccc(S(=O)(=O)Nc2nccc(N)n2)cc1` came in with a pKa of 9.44.

Molecule `CS(=O)(=O)c1ccc(O)cc1` came in with a pKa of 7.83.

In turn, `CCN(CC)Cc1cc(F)ccc1O` showed a pKa of 10.8.

`O/C(=C/c1ccncc1)c1ccccc1` returned a pKa of 10.3.

`CCc1c(O)nn(-c2ccccc2C(=O)[O-])c1C` gave a pKa of 12.2.

On to `CCC(C)(C)C(=O)O`, for which the pKa is 5.03.

`S=C(Nc1ccc(Cl)c(Cl)c1)c1ccc(Cl)cc1` gave a pKa of 9.51.

For `O=C(O)c1ccc[se]1`, the pKa was 3.43.

`CS(=O)c1ccc(O)cc1` (configuration not stated) returned a pKa of 8.28.

`CCC(C)(O)c1cnc(CC(C)C)c(O)[n+]1[O-]` (configuration not stated): the pKa is 5.02.

Consider `Cc1cnnc2c(O)cccc12`, for which the pKa was determined as 8.34.

`O=C(O)[C@@H](P)CC[C@H](P)C(=O)O` had a pKa of 3.62.

Molecule `O=Cc1cc(Cl)cc([N+](=O)[O-])c1O` gave a pKa of 4.46.

In the case of `O=P([O-])(O)c1cn2c([nH+]1)[C@@H](O)[C@H](O)[C@@H](O)[C@@H]2CO`, the pKa was 4.84.

`CC(=O)[n+]1ccc(C#N)cc1`: the pKa came out at 1.98.

The molecule `Cn1c(-c2ccccc2O)[nH+]c2ccccc21` returned a pKa of 5.76.

Regarding `CC(C)=C(C#N)C(=O)O`, the pKa worked out at 3.04.

As to `CC(O)(c1ccccc1)C(C(=O)O)c1ccc(-c2ccccc2)cc1` (configuration not stated), the pKa is 3.38.

With `O=P1(O)CCCC1`, the pKa is 2.51.

Turning to `OC(C[S-])CS`, the pKa came to 10.7.

`C=CCc1ccc2cccnc2c1O` displayed a pKa of 10.1.

In the case of `O=C(O)c1csc(Cl)n1`, the pKa amounted to 3.3.

In turn, `CC#CC#CC(=O)O` had a pKa of 1.94.

For `CC(=O)[C@@H]1C[C@@H]1C(=O)O`, the pKa was determined as 4.19.

In turn, `CC(C)c1ccc(C(=O)O)cc1` yielded a pKa of 4.31.

Molecule `O=C(O)c1cccc2ccc(O)cc12` displayed a pKa of 3.69.

The molecule `Oc1n[nH]c(-c2ccccc2)c1Cc1ccccc1` yielded a pKa of 7.7.

As for `O=[N+]([O-])Cc1cccc(Cl)c1`, the pKa was 6.63.

`[NH3+]CCCCCCCCCC(=O)O`: the pKa came out at 4.57.

With `Cc1ccccc1/C=C/C(=O)O`, the pKa turned out to be 4.5.

For the molecule `O=C([O-])c1ccccc1S`, the pKa is 7.6.

Take `O=C(O)CSc1[nH]c2cc3ccccc3cc2[nH+]1`: the pKa came to 1.9.

Regarding `Nc1ccccc1[N+](=O)[O-]`, the pKa is 13.4.

Consider `NC(=O)NOCCC([NH3+])C(=O)O` (configuration not stated), for which the pKa amounted to 2.5.

Regarding `COc1ccccc1C(=O)NO`, the pKa came to 8.9.

On to `Oc1cccc2c1-c1ccccc1-2`, for which the pKa turned out to be 8.64.

Take `O=C(O)[C@H]1[C@@H]2C=C[C@H]1CC2`: the pKa stood at 4.58.

With `C[NH2+]C(C)C(=O)O` (configuration not stated), the pKa worked out at 2.22.

In turn, `O=c1c2[nH]cnc2ncn1O` came in with a pKa of 5.66.

The data set is the same for the next values; noted with them: basic group.
`COC(=O)c1ccc2ccccc2n1`: the pKa was 1.75.

`C[C@H](N)Cc1ccc(O)cc1` yielded a pKa of 9.3.

`CCC(=O)C(CC(C)N1CCCCC1)(c1ccccc1)c1ccccc1` (configuration not stated): the pKa came out at 8.58.

Consider `CC(O)CN(CCCN1CCOCC1)CC(C)O` (configuration not stated), for which the pKa worked out at 8.4.

Regarding `CC(C)C(N)C(C)C`, the pKa turned out to be 10.4.

Take `C#CCCCN`: the pKa worked out at 10.2.

In the case of `N[C@@H](Cc1nc(I)[n-]c1I)C(=O)[O-]`, the pKa came to 9.76.

`CCOCCn1c(CN2CCN(CCCCn3cc(C(=O)[O-])cn3)CC2)nc2ccccc21` came in with a pKa of 8.

The molecule `Nc1ccc2[nH]ncc2c1` gave a pKa of 5.15.

Molecule `CN1CCCCN1C` gave a pKa of 6.66.

Take `Cc1n[nH]c2c(NCc3ccccc3)ncnc12`: the pKa stood at 4.95.

For `Cn1c(CBr)nc2c(O)ccc(O)c21`, the pKa was 3.99.

In the case of `CCOC(=O)c1cnc2ccc([N+](=O)[O-])cc2c1[O-]`, the pKa came to 8.

With `Nc1ccccc1C(=O)[O-]`, the pKa worked out at 4.87.

Turning to `Nc1ccc(S(=O)(=O)Nc2cncnc2)cc1`, the pKa turned out to be 1.9.

In turn, `C1CCCNCCCCCCNCC1` showed a pKa of 9.6.

As to `CCC(=O)C(c1ccccc1)(c1ccccc1)C(C)CN1CCOCC1` (configuration not stated), the pKa turned out to be 7.12.

As for `Cc1cccc(N(C)C)c1`, the pKa was 5.32.

In turn, `COc1ccc2[nH]c3c(C)nccc3c2c1` showed a pKa of 7.09.

`Cc1cnoc1C` yielded a pKa of 0.

`OCCNc1ccccc1`: the pKa turned out to be 4.09.

Molecule `Oc1onc2c1CCN(Cc1ccccc1)CC2` came in with a pKa of 8.

For the molecule `CC(CN(C)C)N(C)C` (configuration not stated), the pKa was found to be 9.49.

`Cc1cc(O)n(-c2ccccc2)n1` showed a pKa of 1.07.

In turn, `O=C([O-])C1CCN1` (configuration not stated) yielded a pKa of 9.54.

As to `CCCCCCCCCCCCCCCNCCCCCCCCCCCCCCC`, the pKa turned out to be 11.

Regarding `CC(C)NCC[NH2+]C(C)C`, the pKa was 7.59.

The molecule `c1ccc(-c2nnc(-c3ccccc3)o2)cc1` had a pKa of 1.96.

In the case of `c1cc(N2CCCC2)c2c(N3CCCC3)cccc2c1`, the pKa was found to be 9.97.

Take `COc1ccc([N+](=O)[O-])c2cccnc12`: the pKa is 3.55.

`NC(=O)Cc1ccccn1` showed a pKa of 4.34.

The molecule `Cc1cc(-c2ccccc2)nn2ccnc12` came in with a pKa of 4.84.

On to `CCOC(=O)CCN(C)C`, for which the pKa was 8.6.

Molecule `Cc1nn(-c2ccccc2)c(C(=O)[O-])c1C(=O)[O-]` came in with a pKa of 5.89.

`O/C(=C/c1ccncc1)c1ccccc1` gave a pKa of 6.21.

Consider `CCC/C=C1\CCCN1C`, for which the pKa was 11.9.

Molecule `O=C([O-])c1ccc([N+](=O)[O-])c2cccnc12` registered a pKa of 4.67.

`Cc1n[nH]c2c(Nc3ccccc3)ncnc12`: the pKa was 4.61.

`O=C([O-])c1cccc2cccnc12` gave a pKa of 6.99.

`[NH3+]Nc1nncc2ccccc12` came in with a pKa of 2.9.

Turning to `Cc1cnnc2c(O)cccc12`, the pKa is 3.18.

For the molecule `CCc1c(C)nn(C)c1O`, the pKa is 3.5.

In the case of `C[Se]CCN`, the pKa was determined as 9.53.

The molecule `CCN(CC)CC(O)CN(CC)CC` returned a pKa of 9.8.

`COc1cc(C#N)cc(C(=O)N[C@@H]2C[C@H]3CC[C@@H](C2)N3Cc2ccccc2)c1OC` registered a pKa of 8.7.

`COc1ccc(S(=O)(=O)CCN2CCOCC2)c(OC)c1OC` yielded a pKa of 4.89.

Molecule `OCCCCCc1cccnc1` came in with a pKa of 5.72.

As for `CC1=CCCCN1C`, the pKa was 11.4.

The molecule `C=CCc1ccc2cccnc2c1O` registered a pKa of 4.52.

In the case of `COc1ccc2c(c1)C([P+](c1ccccc1)(c1ccccc1)c1ccccc1)c1ccccc1-2` (configuration not stated), the pKa was 9.09.

Turning to `CC1CC2CCN1CC2` (configuration not stated), the pKa was found to be 11.3.

In the case of `N[C@@H](CCC(=O)[O-])C(=O)[O-]`, the pKa turned out to be 9.33.

Consider `Cc1cc(-c2ccc(N)c(C)c2)ccc1N`, for which the pKa was found to be 4.64.

Turning to `CCc1cccc(/N=N/c2ccc(N(C)C)cc2)c1`, the pKa came out at 2.16.

`CC(=O)N1CCN(C)CC1` came in with a pKa of 7.1.

The molecule `COc1cc(S(C)(=O)=O)cc(C(=O)N[C@@H]2C[C@H]3CC[C@@H](C2)N3Cc2ccccc2)c1OC` displayed a pKa of 8.92.

As for `Nc1ccccc1[N+](=O)[O-]`, the pKa is -0.24.

For the molecule `CC(CC(C#N)(c1ccccc1)c1ccccc1)N1CCCCC1` (configuration not stated), the pKa came out at 7.73.

Regarding `[O-]c1ncc2ccccc2n1`, the pKa amounted to 10.7.

The molecule `Nc1ccc(-c2ncc(-c3ccc(Br)cc3)o2)cc1` gave a pKa of 2.8.

Molecule `CC(C)[C@@H]1CC[C@@H](C)C[C@@H]1N` registered a pKa of 10.5.

Turning to `CN1[C@@H]2CC[C@H]1C[C@H](O)C2`, the pKa was 10.3.

Regarding `O[C@H]1[C@H](O)[C@@H](n2cnc3ccccc32)OC[C@@H]1O`, the pKa came out at 3.92.

The molecule `Cc1cc(N)cc[n+]1[O-]` registered a pKa of 4.1.

Regarding `CC(=O)OCC1CN2CCC1CC2` (configuration not stated), the pKa came out at 10.3.
